Source: patent publication US20240263146A1, “HUMAN NSCLC CELL LINES AND USES THEREOF” (SHANGHAI LIDE BIOTECH CO., LTD., priority 2020, published 2024)

What was measured:
Experiment in all cases: cells
[1] = tested on: LD1-0006-215676 (EGFR L858R/T790M) cell line; conditions: Homo sapiens, 144 h
Method: (§1) The cell lines of the present disclosure (i.e., LD1-0025-200636; LD1-0025-200694; LD1-0006-215676; and LD1-0025-200717) were seeded at 2×10^2 cells/well to 96 well round bottom ultra low attachment plate. The drugs were added into the cell lines and the cells were cultured in 37° C. and 5% CO2 for 6 days. The ATP amount was measured using CellTiter-Glo. The Inhibition rate corresponding to the concentration of the drugs was calculated. The equation for calculating the inhibition rate is as follows: […]
(§2) Inhibition curve was graphed by XLfit(IDBS) and IC50 was calculated.

[2] = tested on: LD1-0025-200636 (EGFR WT) cell line; conditions: Homo sapiens, 144 h
Method: as §1, §2

[3] = tested on: LD1-0025-200694 (EGFR L858R) cell line; conditions: Homo sapiens, 144 h
Method: as §1, §2

[4] = tested on: LD1-0025-200717 (EGFR 19del, T790M & C797S mutant) cell line; conditions: Homo sapiens, LD1-0025-200717, 144 h
Method: as §1, §2

## C=CC(=O)Nc1cc(Nc2nccc(-c3cn(C)c4ccccc34)n2)c(OC)cc1N(C)CCN(C)C [AZD9291, Osimertinib]
[1]
  IC50: 30 nM
[2]
  IC50: 2520 nM
[3]
  IC50: 2670 nM
[4]
  IC50: 2010 nM
